Experimental data: patent US20240182460A1, “ALLOSTERIC CHROMENONE INHIBITORS OF PHOSPHOINOSITIDE 3-KINASE (PI3K) FOR THE TREATMENT OF DISEASE” (PETRA PHARMA CORPORATION, priority 2022, published 2024)
Where two headings read alike, the source gives them in different places.

Key:
[1] = molecular target: T1, PI3Kα H1047R (Homo sapiens, UniProt P42336, H1047R); assay: PI3Kα H1047R mutant in vitro cell based assay, MDA-MB-453 cells (AlphaLisa SureFire); settings: MDA-MB-453 cell line, 0% FBS, 3 hours treatment
T1 construct: The MDA-MB-453 (ATCC-HTB-131) cell line (PI3Kα H1047R); host or cells: MDA-MB-453
T1 sequence (P42336 whole entry H1047R): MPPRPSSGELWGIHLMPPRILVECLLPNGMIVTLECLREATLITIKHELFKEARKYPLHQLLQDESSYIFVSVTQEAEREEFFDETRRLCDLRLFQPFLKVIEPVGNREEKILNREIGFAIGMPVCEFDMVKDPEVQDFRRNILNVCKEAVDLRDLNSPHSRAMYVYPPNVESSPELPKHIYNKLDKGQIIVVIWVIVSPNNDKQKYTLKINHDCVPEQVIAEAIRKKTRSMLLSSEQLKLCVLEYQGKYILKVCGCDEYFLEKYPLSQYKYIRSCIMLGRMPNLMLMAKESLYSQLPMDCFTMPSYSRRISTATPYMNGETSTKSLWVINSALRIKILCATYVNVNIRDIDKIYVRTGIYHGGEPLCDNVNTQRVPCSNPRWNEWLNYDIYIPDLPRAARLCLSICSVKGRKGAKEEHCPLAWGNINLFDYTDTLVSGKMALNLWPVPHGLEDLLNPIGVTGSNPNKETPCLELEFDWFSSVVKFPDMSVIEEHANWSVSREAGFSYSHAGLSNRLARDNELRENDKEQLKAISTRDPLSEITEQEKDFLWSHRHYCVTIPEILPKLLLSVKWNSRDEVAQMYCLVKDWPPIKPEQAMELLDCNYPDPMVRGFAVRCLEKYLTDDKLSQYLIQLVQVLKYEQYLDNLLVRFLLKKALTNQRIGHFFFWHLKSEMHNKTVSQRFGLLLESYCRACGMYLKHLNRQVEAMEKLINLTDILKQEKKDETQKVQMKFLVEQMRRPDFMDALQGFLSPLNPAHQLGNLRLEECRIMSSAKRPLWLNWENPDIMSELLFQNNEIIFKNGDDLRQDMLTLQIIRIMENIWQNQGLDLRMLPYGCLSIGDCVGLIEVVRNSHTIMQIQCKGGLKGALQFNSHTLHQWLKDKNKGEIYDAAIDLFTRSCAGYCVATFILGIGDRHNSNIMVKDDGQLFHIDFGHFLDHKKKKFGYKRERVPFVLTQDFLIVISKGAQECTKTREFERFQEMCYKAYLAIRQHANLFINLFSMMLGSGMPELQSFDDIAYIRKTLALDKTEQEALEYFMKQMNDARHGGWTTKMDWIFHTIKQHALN
T1 sequence (P27986 whole entry partner): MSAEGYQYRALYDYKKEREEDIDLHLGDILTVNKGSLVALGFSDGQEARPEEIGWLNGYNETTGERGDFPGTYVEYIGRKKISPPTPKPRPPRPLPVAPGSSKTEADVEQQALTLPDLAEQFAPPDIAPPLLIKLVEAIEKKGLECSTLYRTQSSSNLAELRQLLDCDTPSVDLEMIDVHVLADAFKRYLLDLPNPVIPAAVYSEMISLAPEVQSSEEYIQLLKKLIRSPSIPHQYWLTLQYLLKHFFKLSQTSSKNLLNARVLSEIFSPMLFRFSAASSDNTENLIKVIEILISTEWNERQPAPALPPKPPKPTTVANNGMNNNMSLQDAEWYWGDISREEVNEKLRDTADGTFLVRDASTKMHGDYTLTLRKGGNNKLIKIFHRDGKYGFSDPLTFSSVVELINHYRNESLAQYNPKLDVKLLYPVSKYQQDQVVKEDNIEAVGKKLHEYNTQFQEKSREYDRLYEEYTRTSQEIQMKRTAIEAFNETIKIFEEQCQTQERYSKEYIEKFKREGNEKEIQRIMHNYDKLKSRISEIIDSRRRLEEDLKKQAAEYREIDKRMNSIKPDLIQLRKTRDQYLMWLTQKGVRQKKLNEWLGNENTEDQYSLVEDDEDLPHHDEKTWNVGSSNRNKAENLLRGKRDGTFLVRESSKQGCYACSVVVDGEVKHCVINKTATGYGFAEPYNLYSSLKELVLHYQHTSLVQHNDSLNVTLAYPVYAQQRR
From the text: PI3K-Alpha Kinase (PI3Kα) Activity: Wild-Type PI3Kα, H1047R Mutant PI3Kα, and E545K Mutant PI3Kα In Vitro Cell Based Assays and Determination of IC50 Values for Inhibitors
The MDA-MB-453 (ATCC-HTB-131) cell line (PI3Kα H1047R) and MCF-7 (ATCC-HTB-22) cell line (PI3Kα E545K), MDA-MB-361 (ATCC-HTB-27) cell line (PI3Kα E545K), and SKBR3 (ATCC-HTB-30) cell line (wild type PI3Kα) were obtained from the American Type Culture Collection (Manassas, VA). MDA-MB-453 cells were maintained in Dulbecco's Modified Eagle Media (DMEM, Gibco 12430) supplemented with 10% Fetal Bovine Serum, heat inactivated (FBS HI, Gibco 10082), 1× non-essential amino acids (NEAA, Gibco 11140), 1 mM sodium pyruvate (Gibco 11360) and 1× Anti-Anti (Gibco 15240). MCF-7 cells were maintained in Minimum Essential Media (MEM) (Gibco 11095) supplemented with 10% Fetal Bovine Serum, heat inactivated (FBS HI, Gibco 10082), 1× non-essential amino acids (NEAA, Gibco 11140), 1 mM sodium pyruvate (Gibco 11360), 1× Anti-Anti (Gibco 15240) and 10 μg/mL human insulin (Sigma I 9278). MDA-MB-361 cells were maintained in Dulbecco's Modified Eagle Media (DMEM, Gibco 12430) supplemented with 20% Fetal Bovine Serum, heat inactivated (FBS HI, Gibco 10082), 1× non-essential amino acids (NEAA, Gibco 11140), 1 mM sodium pyruvate (Gibco 11360) and 1× Anti-Anti (Gibco 15240). SKBR3 cells were maintained in McCoy's 5A (Gibco 16600) supplemented with 10% Fetal Bovine Serum, heat inactivated (FBS HI, Gibco 10082), and 1× Anti-Anti (Gibco 15240). Cultures were maintained in a humidified incubator at 37° C. under 5% CO2/95% air.
For compound testing in 0% FBS, MDA-MB-453, MCF-7 and SKBR3 cells were seeded at a density of 1.5×10^4, 1.0×10^4, and 1.0×10^4 cells, respectively, per well in white 384-well plates in 20 μl of Minimum Essential Media (MEM) assay media with 1×NEAA, 1 mM sodium pyruvate, and 1 μg/mL human insulin (Sigma 19278) (Assay Medium); while MDA-MB-361 cells were seeded at a density of 1.5×10^4 per well in white 384-well plates in 20 μl Assay Medium without insulin. After plating, cells were allowed to attach overnight. Compounds dissolved in 10 mM stock solutions in DMSO were serially diluted 1:3 in DMSO to generate a 10-point dilution series and plated using an acoustic liquid handler system (Echo 550 Series Liquid Handler, Labcyte). A 5× intermediate compound dilution plate in MEM with 1×NEAA and 1 mM sodium pyruvate (150 μM starting compound concentration in 1.5% DMSO) was then prepared. Five μl of the intermediate serially diluted compounds were added to the cell plate to final concentrations ranging from […] in 0.3% DMSO. 0.3% DMSO alone was used to establish the maximum (MAX) signal and GDC-0032 at a final concentration of 1 μM was used as a reference compound for the minimum (MIN) signal. After 3 hours treatment, the medium was removed, and the cells were lysed in 10 μL of 1× SureFire Lysis buffer with shaking for 10 minutes at room temperature. The Acceptor Mix (Reaction Buffer 1+Reaction Buffer 2+Activation Buffer+SureFire Ultra Acceptor Beads) was prepared by diluting Activation buffer 25-fold in combined Reaction Buffer 1 and Reaction Buffer 2.
The Acceptor beads were diluted 50-fold in the combined Reaction Buffers. Five μL of Acceptor Mix was added to each well, the plate was sealed and covered with foil and incubated for 1 hour at room temperature. The Donor Mix (dilution buffer+SureFire Ultra Donor Beads) was prepared by diluting Donor Beads 50-fold in dilution buffer. Five μL of the Donor Mix was added to each well and the plate sealed and covered with foil and incubated for 1-2 hours at room temperature in the dark. The plates were read on a Neo2 plate reader instrument from Biotek using standard AlphaLisa settings.
Compounds were tested in duplicate and the % inhibition at each compound concentration was used to generate two dose response curves. One IC50 was generated using average % inhibition at each compound concentration. […]

[2] = molecular target: T2, PI3Kα E545K (Homo sapiens, UniProt P42336, E545K); assay: PI3Kα E545K mutant in vitro cell based assay, MDA-MB-361 cells; parameters: MDA-MB-361 (ATCC-HTB-27) cell line (PI3Kα E545K); host or cells: MDA-MB-361; settings: MDA-MB-361 cell line, 0% FBS, no insulin, 3 hours treatment
T2 sequence (P42336 whole entry E545K): as the sequence (P42336 whole entry H1047R) above, with E545K, R1047H counted along it
T2 sequence (P27986 whole entry partner): as the sequence (P27986 whole entry partner) above
Outline: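 Compound exposure lasted 3 hours, in duplicate 10-point 1:3 dilutions at 0.3% DMSO final, on overnight-attached MDA-MB-361 cells carrying PI3Kα E545K in insulin-free, 0% FBS MEM. Lysates read by SureFire AlphaLISA. Relative IC50 from 4-parameter logistic fit versus DMSO and 1 μM GDC-0032 controls.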

[3] = molecular target: T2, PI3Kα E545K; assay: PI3Kα E545K mutant in vitro cell based assay, MCF-7 cells; settings: MCF-7 cell line, 0% FBS, 3 hours treatment
Outline: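 MCF-7 cells (PI3Kα E545K) in serum-free MEM with 1 μg/mL insulin were treated 3 h with 10-point 1:3 dilutions in 0.3% DMSO. Lysates were read by SureFire AlphaLisa. IC50 was fitted by 4-parameter logistic to % inhibition relative to DMSO (max) and 1 μM GDC-0032 (min), duplicates averaged.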

[4] = Metabolic stability and intrinsic clearance in human liver microsomes (MICS); format: in vitro ADME; settings: pH 7.4
Outline: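 Parent depletion by LC-MS/MS, run in duplicate, gave in vitro t1/2 from the slope of ln(% remaining) versus time, converted to CLint (μL/min/mg protein). Incubations: 1 μM compound, microsomes at 0.5 mg/mL, pH 7.4 phosphate, 37° C, ±1 mM NADPH, timepoints 0.5, 5, 15, 30, 60 min.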

| Structure (SMILES) | IC50 [1] [nM] | IC50 [2] [nM] | IC50 [3] [nM] | microsomal CLint at 1 μM ([4]; human, microsomes) [µL/min/mg] | microsomal CLint at 1 μM ([4]; human liver microsomes 0.5 mg/mL, 1 μM compound, read-out: intrinsic clearance in human MICS) [µL/min/mg] |
| --- | --- | --- | --- | --- | --- |
| Cc1cc([C@@H](C)Oc2ccc(Cl)nc2C(N)=O)c2oc(-c3ccc4nc(C)sc4c3)c(C)c(=O)c2c1 [Example 68A, 6-Chloro-3-[(1R)-1-[3,6-dimethyl-2-(2-methyl-1,3-benzothiazol-6-yl)-4-oxo-chromen-8-yl]ethoxy]pyridine-2-carboxamide] | < 100 | < 500 | < 500 |  |  |
| Cc1cc([C@@H](C)Oc2ccc(Cl)nc2C(N)=O)c2oc(-c3ccc4[nH]ncc4c3)c(C)c(=O)c2c1 [Example 22B, 6-Chloro-3-[(1R)-1-[2-(1H-indazol-5-yl)-3,6-dimethyl-4-oxo-chromen-8-yl]ethoxy]pyridine-2-carboxamide] | < 100 | < 500 | < 500 |  |  |
| Cc1cc([C@@H](C)Oc2ccc(Cl)nc2N)c2oc(-c3cnn(C)c3)c(C)c(=O)c2c1 [Example 30B, 8-[(1R)-1-[(2-Amino-6-chloro-3-pyridyl)oxy]ethyl]-3,6-dimethyl-2-(1-methylpyrazol-4-yl)chromen-4-one] | < 100 | < 500 | < 500 |  |  |
| Cc1cc([C@@H](C)Oc2ccc(Cl)nc2S(N)(=O)=O)c2oc(C3CC3)c(C)c(=O)c2c1 [Example 74A, 6-Chloro-3-[(1R)-1-(2-cyclopropyl-3,6-dimethyl-4-oxo-chromen-8-yl)ethoxy]pyridine-2-sulfonamide] | < 100 | < 500 | < 500 |  |  |
| Cc1cc([C@@H](C)Oc2ccc(Cl)nc2-c2noc(=O)[nH]2)c2oc(-c3ccccc3)c(C)c(=O)c2c1 [Example 2, 3-[6-Chloro-3-[(1R)-1-(3,6-dimethyl-4-oxo-2-phenyl-chromen-8-yl)ethoxy]-2-pyridyl]-4H-1,2,4-oxadiazol-5-one] | < 100 |  | < 500 |  | < 50 |
| Cc1cc([C@@H](C)Oc2ccc(Cl)nc2S(C)(=O)=O)c2oc(-c3cnn(CCO)c3)c(C)c(=O)c2c1 [Example 29B, 8-[(1R)-1-[(6-Chloro-2-methylsulfonyl-3-pyridyl)oxy]ethyl]-2-[1-(2-hydroxyethyl)pyrazol-4-yl]-3,6-dimethyl-chromen-4-one] | < 100 | < 500 | < 500 |  |  |

Further lines, results first:

| IC50 [1] [nM] | IC50 [2] [nM] | IC50 [3] [nM] | microsomal CLint at 1 μM ([4]; human, microsomes) [µL/min/mg] | microsomal CLint at 1 μM ([4]; human liver microsomes 0.5 mg/mL, 1 μM compound, read-out: intrinsic clearance in human MICS) [µL/min/mg] | Structure (SMILES) |
| --- | --- | --- | --- | --- | --- |
| < 100 | < 500 | < 500 |  |  | Cc1cc([C@@H](C)Oc2ccc(Cl)nc2S(N)(=O)=O)c2oc(-c3ccc(S(C)(=O)=O)cc3)c(C)c(=O)c2c1 [Example 31C, 6-Chloro-3-[(1R)-1-[3,6-dimethyl-2-(4-methylsulfonylphenyl)-4-oxo-chromen-8-yl]ethoxy]pyridine-2-sulfonamide] |
| < 100 |  | < 500 | < 50 |  | Cc1cc([C@@H](C)Oc2ccc(Cl)nc2S(N)(=O)=O)c2oc(-c3cnc(C4CC4)nc3)c(C)c(=O)c2c1 [Example 83A, 6-Chloro-3-[(1R)-1-[2-(2-cyclopropylpyrimidin-5-yl)-3,6-dimethyl-4-oxo-chromen-8-yl]ethoxy]pyridine-2-sulfonamide] |
| < 100 | < 500 | < 500 |  |  | Cc1cc([C@@H](C)Oc2ccc(Cl)nc2S(C)(=O)=O)c2oc(-c3cnn(C)c3)c(C)c(=O)c2c1 [Example 146A, 8-[(1R)-1-[(6-Chloro-2-methylsulfonyl-3-pyridyl)oxy]ethyl]-3,6-dimethyl-2-(1-methylpyrazol-4-yl)chromen-4-one] |
| < 100 | < 500 | < 500 |  |  | Cc1cc([C@@H](C)Oc2ccc(Cl)nc2C(N)=O)c2oc(-c3ccc4nn(C)cc4c3)cc(=O)c2c1 [Example 52A, 6-Chloro-3-[(1R)-1-[6-methyl-2-(2-methylindazol-5-yl)-4-oxo-chromen-8-yl]ethoxy]pyridine-2-carboxamide] |
